Measured values taken from patent publication US20250230193A1, “CYCLIC COMPOUND HAVING SELECTIVE KRAS INHIBITORY EFFECT ON HRAS AND NRAS” (CHUGAI SEIYAKU KABUSHIKI KAISHA, priority 2022, published 2025).

Columns and labels:
[1] = target: GDP-bound HRAS wild-type protein (Homo sapiens, UniProt P01112); assay: Binding to HRAS by surface plasmon resonance (SPR), Single Cycle Kinetics; conditions: KD ratio, GDP-bound HRAS wild-type vs GDP-bound KRAS wild-type, SPR
[2] = target: GDP-bound NRAS wild-type protein (Homo sapiens, UniProt P01111); assay: Binding to NRAS by surface plasmon resonance (SPR), Single Cycle Kinetics; conditions: KD ratio, GDP-bound NRAS wild-type vs GDP-bound KRAS wild-type, SPR
Sequence of GDP-bound NRAS wild-type protein (P01111 whole entry): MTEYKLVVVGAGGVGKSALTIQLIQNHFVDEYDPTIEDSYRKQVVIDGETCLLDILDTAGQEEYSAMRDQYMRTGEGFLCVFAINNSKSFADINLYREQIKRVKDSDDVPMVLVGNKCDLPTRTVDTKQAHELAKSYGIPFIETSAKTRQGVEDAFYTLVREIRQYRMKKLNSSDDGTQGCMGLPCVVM

Sequence of GDP-bound HRAS wild-type protein (P01112 whole entry): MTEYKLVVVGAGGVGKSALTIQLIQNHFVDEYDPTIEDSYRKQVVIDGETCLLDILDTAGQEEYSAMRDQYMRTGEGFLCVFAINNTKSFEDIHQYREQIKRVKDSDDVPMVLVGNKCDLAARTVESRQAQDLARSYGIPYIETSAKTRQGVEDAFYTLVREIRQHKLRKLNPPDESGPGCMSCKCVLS

| Structure (SMILES) | HRAS/KRAS (ratio of KD value for HRAS to KD value for KRAS) [1] | NRAS/KRAS (ratio of KD value for NRAS to KD value for KRAS) [2] |
| --- | --- | --- |
| CCO[C@@H]1C[C@H]2C(=O)NC3(CCC3)C(=O)N(C)[C@@H](C3CCCC3)C(=O)N(C)[C@H](C(=O)N(C)CC)CC(=O)N(C)[C@@H](C(C)C)C(=O)N[C@@H]([C@@H](C)CC)C(=O)N(C)CC(=O)N(C)[C@H]3C/C=C\CCN(C3=O)[C@@H](Cc3ccc(C(F)(F)F)cc3)C(=O)N(C)CC(=O)N[C@@H](CCc3cc(F)c(C(F)(F)F)c(F)c3)C(=O)N2C1 [PP1990] | A (a compound having 10 or more and less than 20 is denoted as A) | A (a compound having 10 or more and less than 20 is denoted as A) |
| CCCN(C)C(=O)[C@@H]1CC(=O)N(C)[C@@H](COCC)C(=O)N[C@@H]([C@@H](C)CC)C(=O)N(C)CC(=O)N(C)[C@H]2C/C=C\CCN(C2=O)[C@@H](Cc2ccc(C(F)(F)F)cc2)C(=O)N(C)CC(=O)N[C@@H](CCc2ccc(C(F)(F)F)c(OC)c2)C(=O)N2C[C@@H](C)C[C@H]2C(=O)NC2(CC(C)(C)C2)C(=O)N(C)[C@@H](C2CCCC2)C(=O)N1C [PP1991] | A (a compound having 10 or more and less than 20 is denoted as A) | A (a compound having 10 or more and less than 20 is denoted as A) |
| CCCN(C)C(=O)[C@@H]1CC(=O)N(C)[C@@H](C(C)C)C(=O)N[C@@H]([C@@H](C)CC)C(=O)N(C)CC(=O)N(C)[C@H]2C/C=C\CCN(C2=O)[C@@H](Cc2ccc(C(F)(F)F)cc2)C(=O)N(C)CC(=O)N[C@@H](CCc2cc(F)c(C(F)(F)F)c(F)c2)C(=O)N2C[C@H](OCC)C[C@H]2C(=O)NC2(CCC2)C(=O)N(C)[C@@H](C2CCCC2)C(=O)N1C [PP1992] | B (a compound having 3 or more and less than 10 is denoted as B) | AA (a compound having 20 or more is denoted as AA) |
| CCOC[C@H]1C(=O)N[C@@H]([C@@H](C)CC)C(=O)N(C)CC(=O)N(C)[C@H]2C/C=C\CCN(C2=O)[C@@H](Cc2ccc(C(F)(F)F)cc2)C(=O)N(C)CC(=O)N[C@@H](CCc2ccc(C(F)(F)F)c(OC)c2)C(=O)N2C[C@@H](C)C[C@H]2C(=O)NC2(CC(C)(C)C2)C(=O)N(C)[C@@H](C2CCCC2)C(=O)N(C)[C@H](C(=O)N(C)CC)CC(=O)N1C [PP1993] | A (a compound having 10 or more and less than 20 is denoted as A) | A (a compound having 10 or more and less than 20 is denoted as A) |
| CCCN(C)C(=O)[C@@H]1CC(=O)N(C)[C@@H](C2CC2)C(=O)N[C@@H]([C@@H](C)CC)C(=O)N(C)CC(=O)N(C)[C@H]2C/C=C\CCN(C2=O)[C@@H](Cc2ccc(C(F)(F)F)cc2)C(=O)N(C)CC(=O)N[C@@H](CCc2cc(F)c(C(F)(F)F)c(F)c2)C(=O)N2C[C@H](OCC)C[C@H]2C(=O)NC2(CCC2)C(=O)N(C)[C@@H](C2CCCC2)C(=O)N1C [PP1994] | A (a compound having 10 or more and less than 20 is denoted as A) | AA (a compound having 20 or more is denoted as AA) |
| CCCOC[C@H]1C(=O)N[C@@H]([C@@H](C)CC)C(=O)N(C)CC(=O)N(C)[C@H]2C/C=C\CCN(C2=O)[C@@H](Cc2ccc(C(F)(F)F)cc2)C(=O)N(C)CC(=O)N[C@@H](CCc2ccc(C(F)(F)F)c(OC)c2)C(=O)N2C[C@@H](C)C[C@H]2C(=O)NC2(CC(C)(C)C2)C(=O)N(C)[C@@H](C2CCCC2)C(=O)N(C)[C@H](C(=O)N(C)CC)CC(=O)N1C [PP1995] | B (a compound having 3 or more and less than 10 is denoted as B) | A (a compound having 10 or more and less than 20 is denoted as A) |
| CCO[C@@H]1C[C@H]2C(=O)NC3(CCC3)C(=O)N(C)[C@@H](C3CCCC3)C(=O)N(C)[C@H](C(=O)N(C)CC)CC(=O)N(C)[C@@H](C3CCC3)C(=O)N[C@@H]([C@@H](C)CC)C(=O)N(C)CC(=O)N(C)[C@H]3C/C=C\CCN(C3=O)[C@@H](Cc3ccc(C(F)(F)F)cc3)C(=O)N(C)CC(=O)N[C@@H](CCc3cc(F)c(C(F)(F)F)c(F)c3)C(=O)N2C1 [PP1996] | B (a compound having 3 or more and less than 10 is denoted as B) | A (a compound having 10 or more and less than 20 is denoted as A) |
| CCCOC[C@H]1C(=O)N[C@@H]([C@@H](C)CC)C(=O)N(C)CC(=O)N(C)[C@H]2C/C=C\CCN(C2=O)[C@@H](Cc2ccc(C(F)(F)F)cc2)C(=O)N(C)CC(=O)N[C@@H](CCc2ccc(C(F)(F)F)c(OC)c2)C(=O)N2C[C@@H](C)C[C@H]2C(=O)NC2(CC(C)(C)C2)C(=O)N(C)[C@@H](C2CCCC2)C(=O)N(C)[C@H](C(=O)N(C)C)CC(=O)N1C [PP1997] | B (a compound having 3 or more and less than 10 is denoted as B) | A (a compound having 10 or more and less than 20 is denoted as A) |
| CCCN(C)C(=O)[C@@H]1CC(=O)N(C)[C@@H](C2CCC2)C(=O)N[C@@H]([C@@H](C)CC)C(=O)N(C)CC(=O)N(C)[C@H]2C/C=C\CCN(C2=O)[C@@H](Cc2ccc(C(F)(F)F)cc2)C(=O)N(C)CC(=O)N[C@@H](CCc2cc(F)c(C(F)(F)F)c(F)c2)C(=O)N2C[C@H](OCC)C[C@H]2C(=O)NC2(CCC2)C(=O)N(C)[C@@H](C2CCCC2)C(=O)N1C [PP1998] | B (a compound having 3 or more and less than 10 is denoted as B) | A (a compound having 10 or more and less than 20 is denoted as A) |
| CC[C@H](C)[C@@H]1NC(=O)[C@H](CCOC)N(C)C(=O)C[C@@H](C(=O)N(C)CC)N(C)C(=O)[C@H](C2CCCC2)N(C)C(=O)C2(CC(C)(C)C2)NC(=O)[C@@H]2C[C@H](C)CN2C(=O)[C@H](CCc2ccc(C(F)(F)F)c(OC)c2)NC(=O)CN(C)C(=O)[C@H](Cc2ccc(C(F)(F)F)cc2)N2CC/C=C\C[C@@H](C2=O)N(C)C(=O)CN(C)C1=O [PP1999] | B (a compound having 3 or more and less than 10 is denoted as B) | A (a compound having 10 or more and less than 20 is denoted as A) |
| CCCN(C)C(=O)[C@@H]1CC(=O)N(C)[C@@H](CC(F)F)C(=O)N[C@@H]([C@@H](C)CC)C(=O)N(C)CC(=O)N(C)[C@H]2C/C=C\CCN(C2=O)[C@@H](Cc2ccc(C(F)(F)F)cc2)C(=O)N(C)CC(=O)N[C@@H](CCc2cc(F)c(C(F)(F)F)c(F)c2)C(=O)N2C[C@@H](C)C[C@H]2C(=O)NC2(CCC2)C(=O)N(C)[C@@H](C2CCCC2)C(=O)N1C [PP2000] | B (a compound having 3 or more and less than 10 is denoted as B) | A (a compound having 10 or more and less than 20 is denoted as A) |
| CCCN(C)C(=O)[C@@H]1CC(=O)N(C)[C@@H](CCOC)C(=O)N[C@@H]([C@@H](C)CC)C(=O)N(C)CC(=O)N(C)[C@H]2C/C=C\CCN(C2=O)[C@@H](Cc2ccc(C(F)(F)F)cc2)C(=O)N(C)CC(=O)N[C@@H](CCc2ccc(C(F)(F)F)c(OC)c2)C(=O)N2C[C@@H](C)C[C@H]2C(=O)NC2(CC(C)(C)C2)C(=O)N(C)[C@@H](C2CCCC2)C(=O)N1C [PP2001] | A (a compound having 10 or more and less than 20 is denoted as A) | A (a compound having 10 or more and less than 20 is denoted as A) |
| CC[C@H](C)[C@@H]1NC(=O)[C@H](C(C)C)N(C)C(=O)C[C@@H](C(=O)N(C)CC)N(C)C(=O)[C@H](C2CCCC2)N(C)C(=O)C2(CC(C)(C)C2)NC(=O)[C@@H]2C[C@H](C)CN2C(=O)[C@H](CCc2ccc(C(F)(F)F)c(OC)c2)NC(=O)CN(C)C(=O)[C@H](Cc2ccc(C(F)(F)F)cc2)N2CC/C=C\C[C@@H](C2=O)N(C)C(=O)CN(C)C1=O [PP2003] | B (a compound having 3 or more and less than 10 is denoted as B) | A (a compound having 10 or more and less than 20 is denoted as A) |
| CC[C@H](C)[C@@H]1NC(=O)[C@H](C(C)C)N(C)C(=O)C[C@@H](C(=O)N(C)C)N(C)C(=O)[C@H](C2CCCC2)N(C)C(=O)C2(CC(C)(C)C2)NC(=O)[C@@H]2C[C@H](C)CN2C(=O)[C@H](CCc2ccc(C(F)(F)F)c(OC)c2)NC(=O)CN(C)C(=O)[C@H](Cc2ccc(C(F)(F)F)cc2)N2CC/C=C\C[C@@H](C2=O)N(C)C(=O)CN(C)C1=O [PP2005] | A (a compound having 10 or more and less than 20 is denoted as A) | A (a compound having 10 or more and less than 20 is denoted as A) |
| CC[C@H](C)[C@@H]1NC(=O)[C@H](C2CC2)N(C)C(=O)C[C@@H](C(=O)N(C)CC)N(C)C(=O)[C@H](C2CCCC2)N(C)C(=O)C2(CC(C)(C)C2)NC(=O)[C@@H]2C[C@H](C)CN2C(=O)[C@H](CCc2ccc(C(F)(F)F)c(OC)c2)NC(=O)CN(C)C(=O)[C@H](Cc2ccc(C(F)(F)F)cc2)N2CC/C=C\C[C@@H](C2=O)N(C)C(=O)CN(C)C1=O [PP2007] | B (a compound having 3 or more and less than 10 is denoted as B) | AA (a compound having 20 or more is denoted as AA) |
| CCCOC[C@H]1C(=O)N[C@@H]([C@@H](C)CC)C(=O)N(C)CC(=O)N(C)[C@H]2C/C=C\CCN(C2=O)[C@@H](Cc2ccc(C(F)(F)F)cc2)C(=O)N(C)CC(=O)N[C@@H](CCc2cc(F)c(C(F)(F)F)c(F)c2)C(=O)N2C[C@@H](C)C[C@H]2C(=O)NC2(CCC2)C(=O)N(C)[C@@H](C2CCCC2)C(=O)N(C)[C@H](C(=O)N(C)CCC)CC(=O)N1C [PP2008] | A (a compound having 10 or more and less than 20 is denoted as A) | A (a compound having 10 or more and less than 20 is denoted as A) |
